Measured values as given in PubChem BioAssay (NCI).
Where “and” joins values, the source holds several entries; their conditions need not be identical. Identical values can stand only once.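 Following 48 hours of exposure in 96-well plates, responses at five concentrations were used to interpolate endpoints linearly. GI50 = concentration required for 50% inhibition of growth. TGI marks complete inhibition of growth.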

Assays:
Experiment in all cases: NCI tumour cell line growth inhibition, 48 h
SNB-75 CNS = test system: SNB-75 CNS
M19-MEL melanoma = test system: M19-MEL melanoma
UO-31 renal = test system: UO-31 renal
OVCAR-4 ovarian = test system: OVCAR-4 ovarian
SF-539 CNS = test system: SF-539 CNS
KM12 colon = test system: KM12 colon
SF-295 CNS = test system: SF-295 CNS
HL-60(TB) leukemia = test system: HL-60(TB) leukemia
LOX IMVI melanoma = test system: LOX IMVI melanoma
EKVX NSCLC = test system: EKVX NSCLC
DMS 114 small cell lung = test system: DMS 114 small cell lung
LXFL 529 NSCLC = test system: LXFL 529 NSCLC
K-562 leukemia = test system: K-562 leukemia
A498 renal = test system: A498 renal
SF-268 CNS = test system: SF-268 CNS
OVCAR-8 ovarian = test system: OVCAR-8 ovarian
NCI-H23 lung = test system: NCI-H23 lung
U251 CNS = test system: U251 CNS
IGROV1 ovarian = test system: IGROV1 ovarian
HCC-2998 colon = test system: HCC-2998 colon
SK-MEL-5 melanoma = test system: SK-MEL-5 melanoma
SR leukemia = test system: SR leukemia
HOP-62 NSCLC = test system: HOP-62 NSCLC
SN12C renal = test system: SN12C renal
OVCAR-3 ovarian = test system: OVCAR-3 ovarian
HT29 colon = test system: HT29 colon
CAKI-1 renal = test system: CAKI-1 renal
DMS 273 small cell lung = test system: DMS 273 small cell lung
NCI-H522 lung = test system: NCI-H522 lung
CCRF-CEM leukemia = test system: CCRF-CEM leukemia
RXF 393 renal = test system: RXF 393 renal
UACC-62 melanoma = test system: UACC-62 melanoma
COLO 205 colon = test system: COLO 205 colon
XF 498 CNS = test system: XF 498 CNS
SNB-19 CNS = test system: SNB-19 CNS
HCT-116 colon = test system: HCT-116 colon
HCT-15 colon = test system: HCT-15 colon
MALME-3M melanoma = test system: MALME-3M melanoma
786-0 renal = test system: 786-0 renal
KM20L2 colon = test system: KM20L2 colon
HOP-92 NSCLC = test system: HOP-92 NSCLC
HOP-18 NSCLC = test system: HOP-18 NSCLC
SK-OV-3 ovarian = test system: SK-OV-3 ovarian
UACC-257 melanoma = test system: UACC-257 melanoma
SNB-78 CNS = test system: SNB-78 CNS
NCI-H226 lung = test system: NCI-H226 lung
ACHN renal = test system: ACHN renal
NCI-H460 lung = test system: NCI-H460 lung
SK-MEL-2 melanoma = test system: SK-MEL-2 melanoma
OVCAR-5 ovarian = test system: OVCAR-5 ovarian
SW-620 colon = test system: SW-620 colon
MOLT-4 leukemia = test system: MOLT-4 leukemia
TK-10 renal = test system: TK-10 renal
A549 NSCLC = test system: A549 NSCLC
SK-MEL-28 melanoma = test system: SK-MEL-28 melanoma
M14 melanoma = test system: M14 melanoma
RPMI-8226 leukemia = test system: RPMI-8226 leukemia
DLD-1 colon = test system: DLD-1 colon
RXF-631 renal = test system: RXF-631 renal
HS 578T breast = test system: HS 578T breast
NCI/ADR-RES ovarian = test system: NCI/ADR-RES ovarian
DU-145 prostate = test system: DU-145 prostate
PC-3 prostate = test system: PC-3 prostate
MDA-MB-231 breast = test system: MDA-MB-231 breast
MDA-MB-435 = test system: MDA-MB-435
T-47D breast = test system: T-47D breast
BT-549 breast = test system: BT-549 breast
MCF7 breast = test system: MCF7 breast

CCOC(=O)Cn1c(=O)[nH]c(=O)c2c1ncn2Cc1ccccc1
TGI (SNB-75 CNS): > 100000 nM | TGI (M19-MEL melanoma): > 100000 nM | TGI (UO-31 renal): > 100000 nM | TGI (OVCAR-4 ovarian): > 100000 nM | TGI (SF-539 CNS): > 100000 nM | TGI (KM12 colon): > 100000 nM | TGI (SF-295 CNS): > 100000 nM | TGI (HL-60(TB) leukemia): > 100000 nM | TGI (LOX IMVI melanoma): > 100000 nM | TGI (EKVX NSCLC): > 100000 nM | TGI (DMS 114 small cell lung): > 100000 nM | TGI (LXFL 529 NSCLC): > 100000 nM | TGI (K-562 leukemia): > 100000 nM | TGI (A498 renal): > 100000 nM | TGI (SF-268 CNS): > 100000 nM | TGI (OVCAR-8 ovarian): > 100000 nM | TGI (NCI-H23 lung): > 100000 nM | TGI (U251 CNS): > 100000 nM | TGI (IGROV1 ovarian): > 100000 nM | TGI (HCC-2998 colon): > 100000 nM | TGI (SK-MEL-5 melanoma): > 100000 nM | TGI (SR leukemia): > 100000 nM | TGI (HOP-62 NSCLC): > 100000 nM | TGI (SN12C renal): > 100000 nM | TGI (OVCAR-3 ovarian): > 100000 nM | TGI (HT29 colon): > 100000 nM | TGI (CAKI-1 renal): > 100000 nM | TGI (DMS 273 small cell lung): > 100000 nM | TGI (NCI-H522 lung): > 100000 nM | TGI (CCRF-CEM leukemia): > 100000 nM | TGI (RXF 393 renal): > 100000 nM | TGI (UACC-62 melanoma): > 100000 nM | TGI (COLO 205 colon): > 100000 nM | TGI (XF 498 CNS): > 100000 nM | TGI (SNB-19 CNS): > 100000 nM | TGI (HCT-116 colon): > 100000 nM | TGI (HCT-15 colon): > 100000 nM | TGI (MALME-3M melanoma): > 100000 nM | TGI (786-0 renal): > 100000 nM | TGI (KM20L2 colon): > 100000 nM | TGI (HOP-92 NSCLC): > 100000 nM | TGI (HOP-18 NSCLC): > 100000 nM | TGI (SK-OV-3 ovarian): > 100000 nM | TGI (UACC-257 melanoma): > 100000 nM | TGI (SNB-78 CNS): > 100000 nM | TGI (NCI-H226 lung): > 100000 nM | TGI (ACHN renal): > 100000 nM | TGI (NCI-H460 lung): > 100000 nM | TGI (SK-MEL-2 melanoma): > 100000 nM | TGI (OVCAR-5 ovarian): > 100000 nM | TGI (SW-620 colon): > 100000 nM | TGI (MOLT-4 leukemia): > 100000 nM | TGI (TK-10 renal): > 100000 nM | TGI (A549 NSCLC): > 100000 nM | TGI (SK-MEL-28 melanoma): > 100000 nM | TGI (M14 melanoma): > 100000 nM | TGI (RPMI-8226 leukemia): > 100000 nM | TGI (DLD-1 colon): > 100000 nM | TGI (RXF-631 renal): > 100000 nM

CC(C)(O)/C=C/C(=O)[C@](C)(O)[C@H]1[C@H](O)C[C@@]2(C)[C@@H]3CC=C4[C@@H](C=C(O)C(=O)C4(C)C)[C@]3(C)C(=O)C[C@]12C
GI50 (SNB-75 CNS): 72.1 nM and 193 nM | GI50 (M19-MEL melanoma): 929 nM and 2160 nM | TGI (M19-MEL melanoma): > 10000 nM | GI50 (UO-31 renal): 195 nM | GI50 (OVCAR-4 ovarian): 343 nM | TGI (OVCAR-4 ovarian): 3210 nM and 4570 nM and 11500 nM | GI50 (SF-539 CNS): 253 nM | TGI (HS 578T breast): 7660 nM | TGI (KM12 colon): > 10000 nM and 2330 nM | GI50 (SF-295 CNS): 275 nM | GI50 (HL-60(TB) leukemia): 265 nM and 1100 nM | TGI (HL-60(TB) leukemia): 935 nM and 2540 nM | GI50 (LOX IMVI melanoma): 574 nM | TGI (LOX IMVI melanoma): 1300 nM and 3180 nM | TGI (NCI/ADR-RES ovarian): 17100 nM | GI50 (DMS 114 small cell lung): 2000 nM | TGI (DMS 114 small cell lung): 5210 nM and 9710 nM | GI50 (LXFL 529 NSCLC): 712 nM | TGI (LXFL 529 NSCLC): 1550 nM and 6670 nM | TGI (K-562 leukemia): > 9250 nM and 11200 nM | GI50 (A498 renal): 189 nM and 522 nM | TGI (A498 renal): 392 nM and 1090 nM | TGI (OVCAR-8 ovarian): > 10000 nM and 8100 nM | TGI (NCI-H23 lung): > 7190 nM and 1150 nM | GI50 (U251 CNS): 229 nM | GI50 (IGROV1 ovarian): 270 nM | TGI (IGROV1 ovarian): 688 nM and 4450 nM and 4600 nM | GI50 (HCC-2998 colon): 319 nM | GI50 (SK-MEL-5 melanoma): 310 nM | TGI (SK-MEL-5 melanoma): 1230 nM and 3620 nM and 1270 nM | TGI (DU-145 prostate): 1900 nM | GI50 (SR leukemia): 1200 nM and 330 nM | TGI (SR leukemia): > 4600 nM and 9080 nM and 14500 nM | GI50 (HOP-62 NSCLC): 442 nM | GI50 (SN12C renal): 431 nM | TGI (PC-3 prostate): 5560 nM | TGI (MDA-MB-231 breast): 92.7 nM | GI50 (CAKI-1 renal): 211 nM and 436 nM | TGI (CAKI-1 renal): 473 nM and 813 nM | GI50 (DMS 273 small cell lung): 282 nM | TGI (DMS 273 small cell lung): 1260 nM and 4290 nM | TGI (MDA-MB-435): 885 nM | GI50 (NCI-H522 lung): 278 nM | GI50 (CCRF-CEM leukemia): 253 nM and 709 nM | TGI (CCRF-CEM leukemia): 2020 nM and 4520 nM | TGI (UACC-62 melanoma): 4970 nM and 8940 nM and 1760 nM | TGI (T-47D breast): 4270 nM | GI50 (COLO 205 colon): 337 nM | TGI (COLO 205 colon): > 10000 nM and 7920 nM and 1350 nM | TGI (XF 498 CNS): 622 nM and 698 nM | GI50 (SNB-19 CNS): 407 nM | TGI (SNB-19 CNS): 1320 nM and 5450 nM and 1190 nM | TGI (HCT-116 colon): 3630 nM and 7310 nM and 1150 nM | GI50 (HCT-15 colon): 273 nM | TGI (HCT-15 colon): > 8330 nM and 3820 nM | GI50 (786-0 renal): 210 nM | GI50 (KM20L2 colon): 660 nM | TGI (KM20L2 colon): > 5600 nM | GI50 (HOP-92 NSCLC): 255 nM | TGI (BT-549 breast): 36.2 nM | GI50 (HOP-18 NSCLC): 276 nM and 602 nM | TGI (HOP-18 NSCLC): 1330 nM and 1910 nM | TGI (UACC-257 melanoma): 1840 nM and 3940 nM and 1620 nM | GI50 (SNB-78 CNS): 737 nM | TGI (SNB-78 CNS): 1610 nM and 5530 nM | GI50 (NCI-H226 lung): 252 nM | GI50 (ACHN renal): 268 nM | TGI (NCI-H460 lung): > 10000 nM and 1620 nM | TGI (SK-MEL-2 melanoma): 597 nM and 1320 nM and 1160 nM | TGI (SW-620 colon): > 4830 nM and 6870 nM and 1640 nM | TGI (MOLT-4 leukemia): > 7730 nM and 24600 nM | GI50 (TK-10 renal): 360 nM and 1680 nM | TGI (TK-10 renal): 770 nM and 3230 nM | TGI (A549 NSCLC): > 5820 nM and 8600 nM and 10300 nM | TGI (SK-MEL-28 melanoma): 581 nM and 1690 nM and 244 nM | TGI (MCF7 breast): 10500 nM | TGI (RPMI-8226 leukemia): 2160 nM and 3570 nM and 11000 nM | GI50 (DLD-1 colon): 291 nM and 721 nM | TGI (DLD-1 colon): > 6130 nM and 6580 nM | GI50 (RXF-631 renal): 750 nM | TGI (RXF-631 renal): > 4220 nM and 3610 nM
